Assay results from ChEMBL document CHEMBL3396964, “SAH derived potent and selective EZH2 inhibitors” (Bioorg Med Chem Lett, 2015).
Active and inactive are the calls of the source. No cut-off for these calls is given here.

Key:
[1] = molecular target: Histone-lysine N-methyltransferase EZH2 (Homo sapiens, UniProt O75530+Q09028+Q15022+Q15910); assay: Inhibition of N-terminally FLAG-tagged wild type EZH2 in EZH2/SUZ12/EED/RbAp48 complex (unknown origin) expressed in baculovirus infected in SF9 cells assessed as inhibition of methylation of nucleosomes at H3K27 by scintillation counting in presence of [3H]SAM
[2] = molecular target: Histone-lysine N-methyltransferase EZH2 (Homo sapiens, UniProt O75530+Q09028+Q15022+Q15910, Y641N); assay: Inhibition of N-terminally FLAG-tagged EZH2 Y641N mutant in EZH2/SUZ12/EED/RbAp48 complex (unknown origin) expressed in baculovirus infected in SF9 cells assessed as inhibition of methylation of nucleosomes at H3K27 by scintillation counting in presence of [3H]SAM
[3] = molecular target: Histone-lysine N-methyltransferase EZH2 (Homo sapiens) (UniProt Q15910); assay: Inhibition of EZH2 (unknown origin) at 100 uM by cell-based assay
[4] = molecular target: T1, Histone-lysine N-methyltransferase EHMT1 (Homo sapiens, UniProt Q9H9B1); assay: Inhibition of EHMT1 (unknown origin) by HMT assay
T1 sequence (Q9H9B1 whole entry): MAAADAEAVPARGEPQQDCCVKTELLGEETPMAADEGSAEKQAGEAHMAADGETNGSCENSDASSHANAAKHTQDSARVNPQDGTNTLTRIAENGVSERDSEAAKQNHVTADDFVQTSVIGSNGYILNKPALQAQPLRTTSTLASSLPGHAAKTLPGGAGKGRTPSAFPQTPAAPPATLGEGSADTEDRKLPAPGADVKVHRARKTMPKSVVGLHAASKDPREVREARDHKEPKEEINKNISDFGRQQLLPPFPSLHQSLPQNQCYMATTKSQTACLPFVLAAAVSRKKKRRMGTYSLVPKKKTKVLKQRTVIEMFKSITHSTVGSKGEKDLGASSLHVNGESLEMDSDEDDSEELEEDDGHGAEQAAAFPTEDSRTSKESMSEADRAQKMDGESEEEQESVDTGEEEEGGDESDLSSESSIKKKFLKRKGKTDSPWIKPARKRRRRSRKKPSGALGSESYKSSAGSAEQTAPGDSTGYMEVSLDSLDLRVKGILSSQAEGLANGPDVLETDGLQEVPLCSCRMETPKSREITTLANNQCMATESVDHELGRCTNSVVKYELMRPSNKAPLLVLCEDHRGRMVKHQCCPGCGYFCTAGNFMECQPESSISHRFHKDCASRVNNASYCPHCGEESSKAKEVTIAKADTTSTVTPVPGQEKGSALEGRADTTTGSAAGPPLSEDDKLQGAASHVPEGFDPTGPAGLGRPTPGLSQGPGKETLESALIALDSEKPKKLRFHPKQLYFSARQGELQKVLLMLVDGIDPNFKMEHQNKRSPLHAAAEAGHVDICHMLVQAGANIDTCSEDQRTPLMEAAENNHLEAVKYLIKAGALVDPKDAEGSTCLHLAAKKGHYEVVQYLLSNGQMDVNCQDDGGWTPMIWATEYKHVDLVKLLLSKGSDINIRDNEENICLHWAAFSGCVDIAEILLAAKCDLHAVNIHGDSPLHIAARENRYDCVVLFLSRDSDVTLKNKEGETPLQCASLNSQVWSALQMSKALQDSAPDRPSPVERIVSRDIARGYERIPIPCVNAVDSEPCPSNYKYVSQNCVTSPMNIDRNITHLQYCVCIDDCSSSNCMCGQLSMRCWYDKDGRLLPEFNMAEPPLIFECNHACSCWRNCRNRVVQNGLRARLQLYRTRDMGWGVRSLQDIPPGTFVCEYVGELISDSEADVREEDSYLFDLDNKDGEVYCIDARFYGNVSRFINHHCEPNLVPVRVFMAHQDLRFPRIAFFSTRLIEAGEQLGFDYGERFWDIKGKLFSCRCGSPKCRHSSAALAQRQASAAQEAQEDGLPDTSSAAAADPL

[5] = molecular target: Histone-lysine N-methyltransferase 2A (Homo sapiens, UniProt Q03164); assay: Inhibition of MLL (unknown origin) by HMT assay
[6] = molecular target: T2, Histone-lysine N-methyltransferase SETD7 (Homo sapiens, UniProt Q8WTS6); assay: Inhibition of SETD7 (unknown origin) by HMT assay
T2 sequence (Q8WTS6 whole entry): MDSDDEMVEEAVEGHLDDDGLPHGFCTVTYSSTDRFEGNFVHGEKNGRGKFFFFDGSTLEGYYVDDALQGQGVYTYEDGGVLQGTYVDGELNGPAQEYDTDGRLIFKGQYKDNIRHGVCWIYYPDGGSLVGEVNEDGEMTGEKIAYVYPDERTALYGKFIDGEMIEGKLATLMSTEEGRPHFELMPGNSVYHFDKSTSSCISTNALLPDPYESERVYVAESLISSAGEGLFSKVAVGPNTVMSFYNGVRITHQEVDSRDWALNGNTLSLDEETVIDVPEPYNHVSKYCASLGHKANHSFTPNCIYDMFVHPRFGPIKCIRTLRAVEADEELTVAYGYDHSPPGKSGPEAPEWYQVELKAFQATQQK

[7] = molecular target: Histone-lysine N-methyltransferase SETDB1 (Homo sapiens, UniProt Q15047); assay: Inhibition of SETDB1 (unknown origin) by HMT assay
[8] = molecular target: Histone-lysine N-methyltransferase SUV39H2 (Homo sapiens, UniProt Q9H5I1); assay: Inhibition of SUV39H2 (unknown origin) by HMT assay
[9] = molecular target: Histone-lysine N-methyltransferase KMT5C (Homo sapiens, UniProt Q86Y97); assay: Inhibition of SUV420H2 (unknown origin) by HMT assay
[10] = molecular target: N-lysine methyltransferase SMYD2 (Homo sapiens, UniProt Q9NRG4); assay: Inhibition of SMYD2 (unknown origin) by HMT assay
N-lysine methyltransferase SMYD2, sequence (Q9NRG4 whole entry): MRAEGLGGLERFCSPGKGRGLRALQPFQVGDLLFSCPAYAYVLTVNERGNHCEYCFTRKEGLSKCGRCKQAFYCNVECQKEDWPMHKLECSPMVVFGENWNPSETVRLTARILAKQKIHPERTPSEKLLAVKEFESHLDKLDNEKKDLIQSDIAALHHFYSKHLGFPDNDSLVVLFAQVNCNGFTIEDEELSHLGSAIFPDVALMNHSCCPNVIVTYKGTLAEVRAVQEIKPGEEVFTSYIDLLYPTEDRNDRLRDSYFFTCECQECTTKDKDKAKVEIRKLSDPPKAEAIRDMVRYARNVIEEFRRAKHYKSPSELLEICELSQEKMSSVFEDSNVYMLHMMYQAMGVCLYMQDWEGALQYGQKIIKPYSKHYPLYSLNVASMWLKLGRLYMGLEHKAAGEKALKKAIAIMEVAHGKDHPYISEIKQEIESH

Histone-lysine N-methyltransferase EZH2 (Homo sapiens, UniProt O75530+Q09028+Q15022+Q15910), sequence (Q15910 whole entry, one chain of several): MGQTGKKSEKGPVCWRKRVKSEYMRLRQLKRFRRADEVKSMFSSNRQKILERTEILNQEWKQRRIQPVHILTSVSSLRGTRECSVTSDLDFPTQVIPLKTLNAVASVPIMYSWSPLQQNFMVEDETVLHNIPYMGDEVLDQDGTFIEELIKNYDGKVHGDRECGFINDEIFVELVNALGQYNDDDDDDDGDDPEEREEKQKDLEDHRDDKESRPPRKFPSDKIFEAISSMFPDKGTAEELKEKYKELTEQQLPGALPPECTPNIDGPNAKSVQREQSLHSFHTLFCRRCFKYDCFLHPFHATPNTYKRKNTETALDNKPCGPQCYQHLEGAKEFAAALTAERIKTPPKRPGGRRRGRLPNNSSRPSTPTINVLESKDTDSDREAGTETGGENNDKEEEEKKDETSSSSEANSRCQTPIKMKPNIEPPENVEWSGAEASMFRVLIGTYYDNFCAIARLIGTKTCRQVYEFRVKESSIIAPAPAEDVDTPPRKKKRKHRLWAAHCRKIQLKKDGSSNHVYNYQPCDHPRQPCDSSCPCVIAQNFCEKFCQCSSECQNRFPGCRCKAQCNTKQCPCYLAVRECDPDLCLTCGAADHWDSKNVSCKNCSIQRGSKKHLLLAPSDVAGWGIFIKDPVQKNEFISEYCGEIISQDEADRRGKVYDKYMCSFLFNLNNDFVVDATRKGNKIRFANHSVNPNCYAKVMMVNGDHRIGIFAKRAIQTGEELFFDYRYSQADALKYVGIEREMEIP
Histone-lysine N-methyltransferase EZH2 (Homo sapiens, UniProt O75530+Q09028+Q15022+Q15910, Y641N), sequence (Q15910 whole entry Y641N, one chain of several): as the sequence (Q15910 whole entry, one chain of several) above, with Y641N counted along it
Histone-lysine N-methyltransferase SUV39H2, sequence (Q9H5I1 whole entry): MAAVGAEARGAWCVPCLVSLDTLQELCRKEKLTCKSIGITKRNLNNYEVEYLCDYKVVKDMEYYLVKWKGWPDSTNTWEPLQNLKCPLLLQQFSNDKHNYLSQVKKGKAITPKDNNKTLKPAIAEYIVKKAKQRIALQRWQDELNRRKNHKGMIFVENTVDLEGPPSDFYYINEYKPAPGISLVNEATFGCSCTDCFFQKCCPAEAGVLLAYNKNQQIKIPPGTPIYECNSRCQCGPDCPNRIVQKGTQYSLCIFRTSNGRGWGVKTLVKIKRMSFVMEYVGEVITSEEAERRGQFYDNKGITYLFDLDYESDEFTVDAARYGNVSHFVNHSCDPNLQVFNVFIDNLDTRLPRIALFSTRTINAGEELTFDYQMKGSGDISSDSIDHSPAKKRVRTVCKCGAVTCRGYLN
Histone-lysine N-methyltransferase EZH2 (Homo sapiens), sequence (Q15910 whole entry, looked up): as the sequence (Q15910 whole entry, one chain of several) above
Histone-lysine N-methyltransferase KMT5C, sequence (Q86Y97 whole entry): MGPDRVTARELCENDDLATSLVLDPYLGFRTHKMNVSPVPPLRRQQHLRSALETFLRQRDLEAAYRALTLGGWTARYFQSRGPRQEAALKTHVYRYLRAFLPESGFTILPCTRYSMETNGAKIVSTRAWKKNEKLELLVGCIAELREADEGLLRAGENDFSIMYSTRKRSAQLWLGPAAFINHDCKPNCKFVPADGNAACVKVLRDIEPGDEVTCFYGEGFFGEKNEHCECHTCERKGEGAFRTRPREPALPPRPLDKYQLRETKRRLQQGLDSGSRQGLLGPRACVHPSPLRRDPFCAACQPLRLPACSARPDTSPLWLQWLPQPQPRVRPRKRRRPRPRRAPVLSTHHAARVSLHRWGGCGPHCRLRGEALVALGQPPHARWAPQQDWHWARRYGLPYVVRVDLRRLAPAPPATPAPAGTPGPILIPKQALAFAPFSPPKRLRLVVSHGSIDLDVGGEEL

Row | Compound | IC50 [1] [µM] | other results
1 | COCc1cc(CNC(=O)[C@@H](N)CCSC[C@H]2O[C@@H](n3cnc4c(N)ncnc43)[C@H](O)[C@@H]2O)n[nH]1 | 40 | –
2 | Nc1ncnc2c1ncn2[C@@H]1O[C@H](CSCC[C@H](N)C(=O)NCc2cnn(-c3ccc(F)cc3)c2)[C@@H](O)[C@H]1O | 1.4 | IC50 [2]: 0.6 µM
3 | Nc1ncnc2c1ncn2[C@@H]1O[C@H](CSCC[C@H](N)C(=O)O)[C@@H](O)[C@H]1O [S-ADENOSYLHOMOCYSTEINE] | – | inhibition [3]: inactive; IC50 [4]: 0.23 µM; IC50 [5]: 2.3 µM; IC50 [6]: 30 µM; IC50 [7]: 2.2 µM; IC50 [8]: 32 µM; IC50 [9]: 10 µM; IC50 [10]: 0.18 µM
4 | CC(C)(C)c1cc(CNC(=O)[C@@H](N)CCSC[C@H]2O[C@@H](n3cnc4c(N)ncnc43)[C@H](O)[C@@H]2O)n[nH]1 | 14 | IC50 [2]: 3.6 µM
5 | Nc1ncnc2c1ncn2[C@@H]1O[C@H](CSCC[C@H](N)C(=O)NCc2cnn(Cc3ccccc3)c2)[C@@H](O)[C@H]1O | 24 | –
6 | Nc1ncnc2c1ncn2[C@@H]1O[C@H](CSCC[C@H](N)C(=O)NCC2CC2)[C@@H](O)[C@H]1O | 60 | –
7 | CCCCNC(=O)C(N)CCSC[C@H]1O[C@@H](n2cnc3c(N)ncnc32)[C@H](O)[C@@H]1O (mixture of isomers) | 24 | –
8 | Nc1ncnc2c1ncn2[C@@H]1O[C@H](CSCC[C@H](N)C(=O)NCc2cc3n(n2)CCN(Cc2ccccc2)C3)[C@@H](O)[C@H]1O | 8 | IC50 [2]: 2.8 µM
9 | Nc1ncnc2c1ncn2[C@@H]1O[C@H](CSCC[C@H](N)C(=O)NCc2cc(C3CCC3)[nH]n2)[C@@H](O)[C@H]1O | 3 | IC50 [2]: 1 µM

Now from value to compound, other results behind:

Row | IC50 [1] [µM] | Compound | other results
10 | 28 | Cc1ccccc1-n1cc(CNC(=O)[C@@H](N)CCSC[C@H]2O[C@@H](n3cnc4c(N)ncnc43)[C@H](O)[C@@H]2O)cn1 | –
11 | 40 | Cc1cc(CNC(=O)[C@@H](N)CCSC[C@H]2O[C@@H](n3cnc4c(N)ncnc43)[C@H](O)[C@@H]2O)n(C)n1 | –
12 | 50 | CCn1cc(CNC(=O)[C@@H](N)CCSC[C@H]2O[C@@H](n3cnc4c(N)ncnc43)[C@H](O)[C@@H]2O)cn1 | –
13 | 50 | CN1CCn2nc(CNC(=O)[C@@H](N)CCSC[C@H]3O[C@@H](n4cnc5c(N)ncnc54)[C@H](O)[C@@H]3O)cc2C1 | –
14 | 40 | Cn1nc(CNC(=O)[C@@H](N)CCSC[C@H]2O[C@@H](n3cnc4c(N)ncnc43)[C@H](O)[C@@H]2O)cc1C1CCC1 | –
15 | 120 | Nc1ncnc2c1ncn2[C@@H]1O[C@H](CSCC[C@H](N)C(=O)NCc2ccccc2)[C@@H](O)[C@H]1O | –
16 | 19 | CCCCNC(=O)[C@@H](N)CCSC[C@H]1O[C@@H](n2cnc3c(N)ncnc32)[C@H](O)[C@@H]1O | –
